# Laboratory results taken from ChEMBL document CHEMBL4699602, “Stapled and Xenopus Glucagon-Like Peptide 1 (GLP-1)-Based Dual GLP-1/Gastrin Receptor Agonists with Improved Metabolic Benefits in Rodent Models of Obesity and Diabetes” (J Med Chem, 2020).
# Where a SMILES comes first, the peptide text is derived from it.
# Target: Glucagon-like peptide 1 receptor (Homo sapiens, UniProt P43220)
# Experiment: Agonist activity at human GLP-1R expressed in HEK293 cells assessed as stimulation of cAMP accumulation incubated for 20 mins
# Type: functional, cell-based
# Sequence of Glucagon-like peptide 1 receptor (P43220 whole entry): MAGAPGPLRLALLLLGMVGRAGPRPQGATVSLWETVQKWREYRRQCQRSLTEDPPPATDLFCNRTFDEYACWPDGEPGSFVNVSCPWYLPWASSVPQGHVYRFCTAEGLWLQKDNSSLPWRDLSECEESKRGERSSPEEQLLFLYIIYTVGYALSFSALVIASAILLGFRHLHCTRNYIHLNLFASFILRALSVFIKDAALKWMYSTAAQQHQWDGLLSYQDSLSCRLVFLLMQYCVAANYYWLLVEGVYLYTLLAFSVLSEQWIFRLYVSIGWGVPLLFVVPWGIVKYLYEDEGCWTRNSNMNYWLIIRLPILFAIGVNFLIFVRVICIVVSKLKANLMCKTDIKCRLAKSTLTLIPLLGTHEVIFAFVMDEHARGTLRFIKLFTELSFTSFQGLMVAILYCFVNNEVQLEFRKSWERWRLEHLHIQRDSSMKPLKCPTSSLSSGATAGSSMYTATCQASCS
row,Structure (SMILES),EC50
1,CC[C@H](C)[C@H](NC(=O)[C@H](CC(C)C)NC(=O)[C@H](Cc1c[nH]c2ccccc12)NC(=O)[C@H](CCC(=O)O)NC(=O)[C@@H](NC(=O)[C@H](Cc1ccccc1)NC(=O)[C@H](CCC(=O)O)NC(=O)[C@H](CCCCN)NC(=O)[C@H](C)NC(=O)[C@H](CS)NC(=O)[C@H](CCC(=O)O)NC(=O)[C@H](CCC(=O)O)NC(=O)[C@H](CCC(=O)O)NC(=O)[C@H](CC(C)C)NC(=O)[C@H](Cc1ccc(O)cc1)NC(=O)[C@H](CCC(=O)O)NC(=O)[C@H](CS)NC(=O)[C@@H](NC(=O)[C@H](CC(=O)O)NC(=O)[C@H](CC(N)=O)NC(=O)[C@@H](NC(=O)[C@H](Cc1ccc(O)cc1)NC(=O)[C@@H](NC(=O)CNC(=O)[C@H](CCC(=O)O)NC(=O)C(C)(C)NC(=O)[C@@H](N)Cc1c[nH]cn1)[C@@H](C)O)[C@@H](C)O)C(C)C)[C@@H](C)CC)C(=O)N[C@@H](CCCCN)C(=O)NCC(=O)N[C@@H](CCCCN)C(=O)N1CCC[C@H]1C(=O)N[C@@H](CO)C(=O)N[C@@H](CO)C(=O)NCC(=O)N[C@@H](C)C(=O)N1CCC[C@H]1C(=O)N1CCC[C@H]1C(=O)N1CCC[C@H]1C(=O)N[C@@H](CO)C(N)=O (HELM PEPTIDE1{H.[Aib].E.G.T.Y.T.N.D.V.C.E.Y.L.E.E.E.C.A.K.E.F.I.E.W.L.I.K.G.K.P.S.S.G.A.P.P.P.S.[am]}$$$$V2.0),150 pM
2,CC[C@H](C)[C@H](NC(=O)[C@H](CC(C)C)NC(=O)[C@H](Cc1c[nH]c2ccccc12)NC(=O)[C@H](CCC(=O)O)NC(=O)[C@@H](NC(=O)[C@H](Cc1ccccc1)NC(=O)[C@H](CCC(=O)O)NC(=O)[C@H](CCCCN)NC(=O)[C@H](C)NC(=O)[C@H](CS)NC(=O)[C@H](CCC(=O)O)NC(=O)[C@H](CCC(=O)O)NC(=O)[C@H](CCC(=O)O)NC(=O)[C@H](CC(C)C)NC(=O)[C@H](Cc1ccc(O)cc1)NC(=O)[C@H](CCC(=O)O)NC(=O)[C@H](CS)NC(=O)[C@@H](NC(=O)[C@H](CC(=O)O)NC(=O)[C@H](CC(N)=O)NC(=O)[C@@H](NC(=O)[C@H](Cc1ccc(O)cc1)NC(=O)[C@@H](NC(=O)CNC(=O)[C@H](CCC(=O)O)NC(=O)C(C)(C)NC(=O)[C@@H](N)Cc1c[nH]cn1)[C@@H](C)O)[C@@H](C)O)C(C)C)[C@@H](C)CC)C(=O)N[C@@H](CCCCN)C(=O)NCC(=O)N[C@@H](CCCCN)C(N)=O (HELM PEPTIDE1{H.[Aib].E.G.T.Y.T.N.D.V.C.E.Y.L.E.E.E.C.A.K.E.F.I.E.W.L.I.K.G.K.[am]}$$$$V2.0),320 pM
3,CC[C@H](C)[C@H](NC(=O)[C@H](CC(C)C)NC(=O)[C@H](Cc1c[nH]c2ccccc12)NC(=O)[C@H](CCC(=O)O)NC(=O)[C@@H](NC(=O)[C@H](Cc1ccccc1)NC(=O)[C@H](CCC(=O)O)NC(=O)[C@H](CCCCN)NC(=O)[C@H](CS)NC(=O)[C@H](C)NC(=O)[C@H](CCC(=O)O)NC(=O)[C@H](CCC(=O)O)NC(=O)[C@H](CCC(=O)O)NC(=O)[C@H](CC(C)C)NC(=O)[C@H](Cc1ccc(O)cc1)NC(=O)[C@H](CS)NC(=O)[C@@H](NC(=O)[C@@H](NC(=O)[C@H](CC(=O)O)NC(=O)[C@H](CC(N)=O)NC(=O)[C@@H](NC(=O)[C@H](Cc1ccc(O)cc1)NC(=O)[C@@H](NC(=O)CNC(=O)[C@H](CCC(=O)O)NC(=O)C(C)(C)NC(=O)[C@@H](N)Cc1c[nH]cn1)[C@@H](C)O)[C@@H](C)O)C(C)C)[C@@H](C)O)[C@@H](C)CC)C(=O)N[C@@H](CCCCN)C(=O)NCC(=O)N[C@@H](CCCCN)C(=O)N1CCC[C@H]1C(=O)N[C@@H](CO)C(=O)N[C@@H](CO)C(=O)NCC(=O)N[C@@H](C)C(=O)N1CCC[C@H]1C(=O)N1CCC[C@H]1C(=O)N1CCC[C@H]1C(=O)N[C@@H](CO)C(N)=O (HELM PEPTIDE1{H.[Aib].E.G.T.Y.T.N.D.V.T.C.Y.L.E.E.E.A.C.K.E.F.I.E.W.L.I.K.G.K.P.S.S.G.A.P.P.P.S.[am]}$$$$V2.0),120 pM
4,CC[C@H](C)[C@H](NC(=O)[C@H](CC(C)C)NC(=O)[C@H](Cc1c[nH]c2ccccc12)NC(=O)[C@H](CCC(=O)O)NC(=O)[C@@H](NC(=O)[C@H](Cc1ccccc1)NC(=O)[C@H](CCC(=O)O)NC(=O)[C@H](CCCCN)NC(=O)[C@H](CS)NC(=O)[C@H](C)NC(=O)[C@H](CCC(=O)O)NC(=O)[C@H](CCC(=O)O)NC(=O)[C@H](CCC(=O)O)NC(=O)[C@H](CC(C)C)NC(=O)[C@H](Cc1ccc(O)cc1)NC(=O)[C@H](CS)NC(=O)[C@@H](NC(=O)[C@@H](NC(=O)[C@H](CC(=O)O)NC(=O)[C@H](CC(N)=O)NC(=O)[C@@H](NC(=O)[C@H](Cc1ccc(O)cc1)NC(=O)[C@@H](NC(=O)CNC(=O)[C@H](CCC(=O)O)NC(=O)C(C)(C)NC(=O)[C@@H](N)Cc1c[nH]cn1)[C@@H](C)O)[C@@H](C)O)C(C)C)[C@@H](C)O)[C@@H](C)CC)C(=O)N[C@@H](CCCCN)C(=O)NCC(=O)N[C@@H](CCCCN)C(N)=O (HELM PEPTIDE1{H.[Aib].E.G.T.Y.T.N.D.V.T.C.Y.L.E.E.E.A.C.K.E.F.I.E.W.L.I.K.G.K.[am]}$$$$V2.0),260 pM
5,CC[C@H](C)[C@H](NC(=O)[C@H](CC(C)C)NC(=O)[C@H](Cc1c[nH]c2ccccc12)NC(=O)[C@H](CCC(=O)O)NC(=O)[C@@H](NC(=O)[C@H](Cc1ccccc1)NC(=O)[C@H](CCC(=O)O)NC(=O)[C@H](CS)NC(=O)[C@H](C)NC(=O)[C@H](C)NC(=O)[C@H](CCC(=O)O)NC(=O)[C@H](CCC(=O)O)NC(=O)[C@H](CCC(=O)O)NC(=O)[C@H](CC(C)C)NC(=O)[C@H](CS)NC(=O)[C@H](CCC(=O)O)NC(=O)[C@@H](NC(=O)[C@@H](NC(=O)[C@H](CC(=O)O)NC(=O)[C@H](CC(N)=O)NC(=O)[C@@H](NC(=O)[C@H](Cc1ccc(O)cc1)NC(=O)[C@@H](NC(=O)CNC(=O)[C@H](CCC(=O)O)NC(=O)C(C)(C)NC(=O)[C@@H](N)Cc1c[nH]cn1)[C@@H](C)O)[C@@H](C)O)C(C)C)[C@@H](C)O)[C@@H](C)CC)C(=O)N[C@@H](CCCCN)C(=O)NCC(=O)N[C@@H](CCCCN)C(=O)N1CCC[C@H]1C(=O)N[C@@H](CO)C(=O)N[C@@H](CO)C(=O)NCC(=O)N[C@@H](C)C(=O)N1CCC[C@H]1C(=O)N1CCC[C@H]1C(=O)N1CCC[C@H]1C(=O)N[C@@H](CO)C(N)=O (HELM PEPTIDE1{H.[Aib].E.G.T.Y.T.N.D.V.T.E.C.L.E.E.E.A.A.C.E.F.I.E.W.L.I.K.G.K.P.S.S.G.A.P.P.P.S.[am]}$$$$V2.0),190 pM
6,CC[C@H](C)[C@H](NC(=O)[C@H](CC(C)C)NC(=O)[C@H](Cc1c[nH]c2ccccc12)NC(=O)[C@H](CCC(=O)O)NC(=O)[C@@H](NC(=O)[C@H](Cc1ccccc1)NC(=O)[C@H](CCC(=O)O)NC(=O)[C@H](CS)NC(=O)[C@H](C)NC(=O)[C@H](C)NC(=O)[C@H](CCC(=O)O)NC(=O)[C@H](CCC(=O)O)NC(=O)[C@H](CCC(=O)O)NC(=O)[C@H](CC(C)C)NC(=O)[C@H](CS)NC(=O)[C@H](CCC(=O)O)NC(=O)[C@@H](NC(=O)[C@@H](NC(=O)[C@H](CC(=O)O)NC(=O)[C@H](CC(N)=O)NC(=O)[C@@H](NC(=O)[C@H](Cc1ccc(O)cc1)NC(=O)[C@@H](NC(=O)CNC(=O)[C@H](CCC(=O)O)NC(=O)C(C)(C)NC(=O)[C@@H](N)Cc1c[nH]cn1)[C@@H](C)O)[C@@H](C)O)C(C)C)[C@@H](C)O)[C@@H](C)CC)C(=O)N[C@@H](CCCCN)C(=O)NCC(=O)N[C@@H](CCCCN)C(N)=O (HELM PEPTIDE1{H.[Aib].E.G.T.Y.T.N.D.V.T.E.C.L.E.E.E.A.A.C.E.F.I.E.W.L.I.K.G.K.[am]}$$$$V2.0),490 pM
7,CC[C@H](C)[C@H](NC(=O)[C@H](CC(C)C)NC(=O)[C@H](Cc1c[nH]c2ccccc12)NC(=O)[C@H](CCC(=O)O)NC(=O)[C@@H](NC(=O)[C@H](CS)NC(=O)[C@H](CCC(=O)O)NC(=O)[C@H](CCCCN)NC(=O)[C@H](C)NC(=O)[C@H](C)NC(=O)[C@H](CCC(=O)O)NC(=O)[C@H](CCC(=O)O)NC(=O)[C@H](CS)NC(=O)[C@H](CC(C)C)NC(=O)[C@H](Cc1ccc(O)cc1)NC(=O)[C@H](CCC(=O)O)NC(=O)[C@@H](NC(=O)[C@@H](NC(=O)[C@H](CC(=O)O)NC(=O)[C@H](CC(N)=O)NC(=O)[C@@H](NC(=O)[C@H](Cc1ccc(O)cc1)NC(=O)[C@@H](NC(=O)CNC(=O)[C@H](CCC(=O)O)NC(=O)C(C)(C)NC(=O)[C@@H](N)Cc1c[nH]cn1)[C@@H](C)O)[C@@H](C)O)C(C)C)[C@@H](C)O)[C@@H](C)CC)C(=O)N[C@@H](CCCCN)C(=O)NCC(=O)N[C@@H](CCCCN)C(=O)N1CCC[C@H]1C(=O)N[C@@H](CO)C(=O)N[C@@H](CO)C(=O)NCC(=O)N[C@@H](C)C(=O)N1CCC[C@H]1C(=O)N1CCC[C@H]1C(=O)N1CCC[C@H]1C(=O)N[C@@H](CO)C(N)=O (HELM PEPTIDE1{H.[Aib].E.G.T.Y.T.N.D.V.T.E.Y.L.C.E.E.A.A.K.E.C.I.E.W.L.I.K.G.K.P.S.S.G.A.P.P.P.S.[am]}$$$$V2.0),220 pM
8,CC[C@H](C)[C@H](NC(=O)[C@H](CC(C)C)NC(=O)[C@H](Cc1c[nH]c2ccccc12)NC(=O)[C@H](CCC(=O)O)NC(=O)[C@@H](NC(=O)[C@H](CS)NC(=O)[C@H](CCC(=O)O)NC(=O)[C@H](CCCCN)NC(=O)[C@H](C)NC(=O)[C@H](C)NC(=O)[C@H](CCC(=O)O)NC(=O)[C@H](CCC(=O)O)NC(=O)[C@H](CS)NC(=O)[C@H](CC(C)C)NC(=O)[C@H](Cc1ccc(O)cc1)NC(=O)[C@H](CCC(=O)O)NC(=O)[C@@H](NC(=O)[C@@H](NC(=O)[C@H](CC(=O)O)NC(=O)[C@H](CC(N)=O)NC(=O)[C@@H](NC(=O)[C@H](Cc1ccc(O)cc1)NC(=O)[C@@H](NC(=O)CNC(=O)[C@H](CCC(=O)O)NC(=O)C(C)(C)NC(=O)[C@@H](N)Cc1c[nH]cn1)[C@@H](C)O)[C@@H](C)O)C(C)C)[C@@H](C)O)[C@@H](C)CC)C(=O)N[C@@H](CCCCN)C(=O)NCC(=O)N[C@@H](CCCCN)C(N)=O (HELM PEPTIDE1{H.[Aib].E.G.T.Y.T.N.D.V.T.E.Y.L.C.E.E.A.A.K.E.C.I.E.W.L.I.K.G.K.[am]}$$$$V2.0),590 pM
